The nature of data set [1]: Solubility in PBS buffer at pH 7.4. Format: physicochemical.
Data set [2] is described as follows: Therapeutic index, ratio of EC50 for cytotoxicity against human BJ cells to EC50 for antimalarial activity against CQ-sensitive Plasmodium falciparum 3D7 MRA-102 infected in human O-positive erythrocytes. Conditions: read-out: Ratio EC50. In kind it is toxicity, cell-based.
Data set [3] concerns BJ. Description: Cytotoxicity against human BJ cells assessed as reduction in cell viability. Format: cell-based.
Data set [4] has as its system Plasmodium falciparum. Nature of the data set: Antimalarial activity against CQ-sensitive Plasmodium falciparum 3D7 MRA-102 infected in human O-positive erythrocytes assessed as inhibition of parasite growth. Format: functional, organism-based. The settings on record: 3D7 MRA-102, Erythrocyte.
Data set [5] concerns Plasmodium falciparum. Nature of the data set: Antimalarial activity against CQ-sensitive Plasmodium falciparum 3D7 MRA-102 infected in human O-positive erythrocytes assessed as inhibition of parasite growth at 16 uM. Conditions: 3D7 MRA-102, Erythrocyte. Format: functional.
Data set [6] can be described thus: Cytotoxicity against human BJ cells assessed as reduction in cell viability at 58 uM. Format: cell-based. Conditions: read-out: INH.
Data set [7] has as its system Plasmodium falciparum. Description: Antimalarial activity against Plasmodium falciparum K1 infected in human erythrocytes assessed as inhibition of parasite growth. Conditions: K1, Erythrocyte. In kind it is functional, organism-based.
In data set [8] the test system is Plasmodium falciparum. Description: Antimalarial activity against Plasmodium falciparum V1S infected in human erythrocytes assessed as inhibition of parasite growth. Format: functional, organism-based. The settings on record: Erythrocyte.

≈ marks a conversion by molar mass, not a printed value. A value given as a limit tells only on which side of the number the result lay.

Here are results for 17 molecules from ChEMBL document CHEMBL4811310, “Antimalarial activity of 2,6-dibenzylidenecyclohexanone derivatives” (Bioorg Med Chem Lett, 2021).

With `CC1C/C(=C\c2cccc(C(F)(F)F)c2)C(=O)/C(=C/c2cccc(C(F)(F)F)c2)C1` (configuration not stated), the solubility in data set [1] was < 1 µM. For the same molecule, the selectivity ratio in data set [2] stood at 18. The EC50 in data set [3] came out at 20.1 µM; in data set [4], 1.1 µM.

As for `O[C@@H](c1cc(C(F)(F)F)nc2c(C(F)(F)F)cccc12)[C@H]1CCCCN1` [(S,R)-MEFLOQUINE], the inhibition at 16 µM in data set [5] was 100%.

For the molecule `N#CC1(c2ccccc2)C/C(=C\c2ccc(C(F)(F)F)cc2)C(=O)/C(=C/c2ccc(C(F)(F)F)cc2)C1` (configuration not stated), the solubility in data set [1] was < 1 µM. In addition, in data set [2], the selectivity ratio was 2. Moreover, the EC50 was found to be 0.406 µM in data set [3] and 0.207 µM in data set [4].

For `O=C1/C(=C/c2cccc(C(F)(F)F)c2)CS(=O)(=O)C/C1=C\c1cccc(C(F)(F)F)c1`, the solubility in data set [1] is < 1 µM. In addition, the selectivity ratio in data set [2] is < 1. Moreover, the EC50 in data set [3] was found to be 0.12 µM; in data set [4], 0.393 µM.

The molecule `O=C1/C(=C/c2cccc(C(F)(F)F)c2)CC(c2ccccc2)C/C1=C\c1cccc(C(F)(F)F)c1` (configuration not stated) came in with a solubility in data set [1] of 1.1 µM (≈ 0.535 µg/mL). Moreover, the selectivity ratio in data set [2] worked out at 3. Besides, the EC50 in data set [3] turned out to be 1.53 µM; in data set [4], 0.491 µM.

As for `N#CC1(c2ccccc2)C/C(=C\c2cccc(C(F)(F)F)c2)C(O)/C(=C/c2cccc(C(F)(F)F)c2)C1` (configuration not stated), the solubility in data set [1] was determined as 2.5 µM (≈ 1.28 µg/mL). The selectivity ratio in data set [2] was > 7. In addition, the results for the EC50 in data set [3] and in data set [4] were > 24 µM and 3.21 µM, respectively.

In data set [1], `N#CC1(c2ccccc2)CC(Cc2cccc(C(F)(F)F)c2)C(=O)C(Cc2cccc(C(F)(F)F)c2)C1` (configuration not stated) gave a solubility of 2.3 µM (≈ 1.19 µg/mL). Also, the selectivity ratio in data set [2] was > 23. The EC50 in data set [3] was > 24 µM; in data set [4], 1.03 µM.

For `N#CC1(c2ccccc2)C/C(=C\c2ccccc2)C(=O)/C(=C/c2ccccc2)C1` (configuration not stated), in data set [1], the solubility was < 1 µM. In data set [2], the selectivity ratio came to 4. Further, the EC50 in data set [3] was 5.85 µM; in data set [4], 1.36 µM.

As for `CCCSc1ccc2nc(NC(=O)OC)[nH]c2c1` [ALBENDAZOLE], the solubility in data set [1] was < 1 µM.

In the case of `CC(=O)[C@]1(O)Cc2c(O)c3c(c(O)c2[C@@H](O[C@H]2C[C@H](N)[C@H](O)[C@H](C)O2)C1)C(=O)c1ccccc1C3=O` [IDARUBICIN], the cytotoxicity at 58 µM in data set [6] was 100%.

The molecule `O=C1/C(=C/c2cccc(C(F)(F)F)c2)CSC/C1=C\c1cccc(C(F)(F)F)c1` gave a solubility in data set [1] of 1.2 µM (≈ 0.514 µg/mL). For the same molecule, in data set [2], the selectivity ratio turned out to be 28. Also, the EC50 in data set [3] was 23.2 µM; in data set [4] it was 0.82 µM.

For `N#CC1(c2ccccc2)C/C(=C\c2cccc(F)c2)C(=O)/C(=C/c2cccc(F)c2)C1` (configuration not stated), the solubility in data set [1] was < 1 µM. Also, the selectivity ratio in data set [2] amounted to 2. Moreover, the EC50 worked out at 2.27 µM in data set [3] and 1.13 µM in data set [4].

Consider `O=C1/C(=C/c2cccc(C(F)(F)F)c2)CCC/C1=C\c1cccc(C(F)(F)F)c1`, for which, in data set [1], the solubility is < 1 µM. Further, in data set [2], the selectivity ratio is 10. Moreover, the 50% effective concentration (EC50) in data set [3] stood at 23.5 µM; in data set [4], 2.29 µM.

As to `NC(=O)N1c2ccccc2C=Cc2ccccc21` [CARBAMAZEPINE], the solubility in data set [1] is > 100 µM.

As for `O=C1/C(=C/c2cccc(C(F)(F)F)c2)COC/C1=C\c1cccc(C(F)(F)F)c1`, the concentration in solution in data set [1] (solubility) was 1.4 µM (≈ 0.577 µg/mL). The selectivity ratio in data set [2] is 20. The results for the EC50 in data set [3] and in data set [4] were 23.7 µM and 1.16 µM, respectively.

In the case of `CC(C)(C)C1C/C(=C\c2cccc(C(F)(F)F)c2)C(=O)/C(=C/c2cccc(C(F)(F)F)c2)C1` (configuration not stated), the solubility in data set [1] was < 1 µM. In data set [2], the selectivity ratio is > 37. Also, the EC50 in data set [3] was > 24 µM; in data set [4], 0.641 µM.

Turning to `N#CC1(c2ccccc2)C/C(=C\c2cccc(C(F)(F)F)c2)C(=O)/C(=C/c2cccc(C(F)(F)F)c2)C1` (configuration not stated), in data set [2], the selectivity ratio is 2. For the same molecule, the EC50 in data set [7] is 0.53 µM; in data set [8], 0.25 µM; in data set [3], 0.57 µM; in data set [4] it was 0.331 µM.
